Results on 2 compounds are retold here after patent publication US20260098008A1, “COVALENT, CHEMOGENETIC ACTIVATORS FOR K2P POTASSIUM CHANNELS AND USES THEREOF” (THE REGENTS OF THE UNIVERSITY OF CALIFORNIA, priority 2022, published 2026).

What all share (experiment): TEVC in Xenopus oocytes, tandem channels
Holding throughout (assay type): cell-based

For assay [1], the target named is T1, CG*-CG* tandem K2P2.1 (TREK-1) (Mus musculus, UniProt P97438, S146C).
T1 construct: expressed in transfected cells; host or cells: Xenopus laevis oocytes injected with mRNA
T1 sequence (P97438 1-411 isoform P97438-2 S131C) 1: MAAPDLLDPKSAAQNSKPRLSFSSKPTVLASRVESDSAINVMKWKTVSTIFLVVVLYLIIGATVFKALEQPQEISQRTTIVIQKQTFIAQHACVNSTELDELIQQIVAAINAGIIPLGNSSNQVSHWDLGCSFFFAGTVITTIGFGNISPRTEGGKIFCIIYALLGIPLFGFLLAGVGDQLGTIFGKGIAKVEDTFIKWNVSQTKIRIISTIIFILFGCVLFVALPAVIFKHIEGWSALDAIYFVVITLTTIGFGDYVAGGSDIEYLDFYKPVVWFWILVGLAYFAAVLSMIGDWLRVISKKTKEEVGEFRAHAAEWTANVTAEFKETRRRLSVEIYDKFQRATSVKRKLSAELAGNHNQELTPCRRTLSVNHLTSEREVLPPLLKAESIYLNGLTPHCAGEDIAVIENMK
T1 sequence (P97438 1-411 isoform P97438-2 S131C) 2: T1 sequence (P97438 1-411 isoform P97438-2 S131C) 1
To be noted: 20 μM, sequential application. From the text:
(§1) Mouse K2P2.1 (TREK-1) (Genbank accession number: NP_034737.2), mouse K2P10.1 (TREK-2) (NM_001316665.1), mouse K2P4.1 (TRAAK) (NM_008431.3), human K2P4.1 (TRAAK) (NM_033310.2) and mouse K2P18.1(TRESK) (NM_207261.3) were used for this study. Point mutations were introduced by site-directed mutagenesis using custom primers and confirmed by sequencing before use. For studies using Xenopus oocytes, K2P channels were subcloned into a previously reported pGEMHE/pMO vector (46). For expression in HEK293 cells, mouse K2P2.1 (TREK-1) and mutants were expressed from a previously described pIRES2-EGFP vector in HEK293 cells (46,47). K2P2.1 (TREK-1) tandems were constructed by connecting the open reading frames for the individual subunits with a linker encoding the […] (SEQ ID NO: 19) sequence. Tandems used for HEK293 cells included an N-terminal HA tag ([…] (SEQ ID NO: 20)) on the first subunit.
(§2) Xenopus laevis oocytes were harvested according to UCSF IACUC Protocol AN129690 and digested using collagenase (Worthington Biochemical Corporation, #LS004183, 0.8-1.0 mg/mL) in Ca^21-free ND96 (96 mM NaCl, 2 mM KCl, 3.8 mM MgCl2, 5 mM HEPES pH 7.4) immediately post-harvest, as previously reported (31,33). Oocytes were maintained at 18° C. in ND96 (96 mM NaCl, 2 mM KCl, 1.8 mM CaCl2, 2 mM MgCl2, 5 mM HEPES pH 7.4) supplemented with antibiotics (100 units mL^−1 penicillin, 100 μg mL^−1 streptomycin, 50 μg mL^−1 gentimycin) and used for experiments within one week of harvest.
(§3) Defolliculated stage V-VI oocytes were microinjected with 0.5-36 ng mRNA and currents were recorded within 16-48 h hours of injection.
(§4) For recordings, oocytes were impaled with borosilicate recording microelectrodes (0.4-2.0 MΩ resistance) backfilled with 3 M KCl and were subjected to constant perfusion of ND96 at a rate of 3 ml min^−1. Recording solutions containing K2P activators were prepared immediately prior to use from DMSO stocks (20-100 mM), with final DMSO concentrations of 0.1%. Currents were evoked from a −80 mV holding potential followed by a 300 ms ramp from −150 mV to +50 mV. Data were recorded using a GeneClamp 500B amplifier (MDS Analytical Technologies) controlled by pCLAMP8 software (Molecular Devices), and digitized at 1 kHz using Digidata 1332 Å digitizer (MDS Analytical Technologies). For each recording, control solution (ND96) was perfused over a single oocyte until current was stable before switching to solutions containing the test compounds at various concentrations. Representative traces and dose response plots were generated in GraphPad Prism 9.

The target of assay [2] is T2, WT-CG* tandem K2P2.1 (TREK-1) (Mus musculus, UniProt P97438, S146C).
T2 construct: expressed in transfected cells; host or cells: Xenopus laevis oocytes injected with mRNA
T2 sequence (P97438 1-411 isoform P97438-2): T1 sequence (P97438 1-411 isoform P97438-2 S131C) 1 with C131S
T2 sequence (P97438 1-411 isoform P97438-2 S131C): T1 sequence (P97438 1-411 isoform P97438-2 S131C) 1
To be noted: 20 μM; for Fold-activation (I activator/I control): sequential application, Xenopus oocytes.
From the text: as §1, §2, §3, §4

In assay [3] the target is T3, CG*-WT tandem K2P2.1 (TREK-1) (Mus musculus, UniProt P97438, S146C).
T3 construct: expressed in transfected cells; host or cells: Xenopus laevis oocytes injected with mRNA
T3 sequence (P97438 1-411 isoform P97438-2 S131C): T1 sequence (P97438 1-411 isoform P97438-2 S131C) 1
T3 sequence (P97438 1-411 isoform P97438-2): T1 sequence (P97438 1-411 isoform P97438-2 S131C) 1 with C131S
To be noted: 20 μM; for Fold-activation (I activator/I control): sequential application, Xenopus oocytes.
From the text: as §1, §2, §3, §4

SMILES strings stand for the structures. Changes are numbered by the printed parent chain.

As for `O=C(NCc1ccc(Cl)cc1Cl)c1ccc(N2C(=O)C=CC2=O)cc1` [CAT335], the “Fold-activation (I activator/I control)” value in assay [1] came out at 14.7 ± 0.9 fold; in assay [2], 11.5 ± 1.1 fold; in assay [3], 8.9 ± 1.1 fold. Further, the “Fold-activation relative to activation of the CG*-CG* homodimer” value in assay [2] and in assay [3] was 60-80% throughout.

On to `CS(=O)(=O)Nc1ccc(C(=O)NCc2ccc(Cl)cc2Cl)cc1` [ML335, reference compound], for which the figures for the “Fold-activation (I activator/I control)” value in assay [1], in assay [2] and in assay [3] were 4.5±0.3 fold, 5.6 ± 0.4 fold and 5.0±0.5 fold, respectively.
